# Laboratory results reported in publication PMC4872216, “Novel small molecule 11β-HSD1 inhibitor from the endophytic fungus Penicillium commune” (Scientific Reports, 2016).
# Entries after “also recorded” stand apart in the source; their conditions may differ.
# Molecular target: T1, recombinant human 11β-HSD1 (Homo sapiens, UniProt P28845)
# T1 construct: The gene encoding 11β-HSD1 (Genebank: NC_018912.2) was cloned into the pET-28a vector (Novagen); hexa-histidine (C, cleaved yes); made in house; host or cells: E. coli BL21(DE3)
# Test: 11β-HSD1 enzyme inhibition assay (cortisone to cortisol, HPLC-MS/MS)
# Type: biochemical
# Settings: cortisone 50 μM, NADPH 1 mM, 37 °C, 30 min, read-out: IC50 (inhibitory activities against 11β-HSD1)
# Experimental: To explore the 11β-HSD1 inhibitory activities of compounds 1–8 in vitro, recombinant human 11β-HSD1 protein was incubated with various concentrations of compounds and the enzymatic activity (cortisone to cortisol) was tested using HPLC-MS/MS (Fig. 3).
# (§1) The gene encoding 11β-HSD1 (Genebank: NC_018912.2) was cloned into the pET-28a vector (Novagen). After the recombinant plasmids were verified by sequencing, the plasmid was transformed into E. coli BL21(DE3) (Invitrogen) which were grown in LB medium at 37 °C to an OD600 (0.8–1.0) and induced by 0.4 mM isopropyl -D-thiogalactopyranoside (IPTG) at 20 °C for 16 hours. Bacterial cells were lysed by ultrasonification on ice in a buffer containing 20 mM Tris, pH 8.5, 200 mM NaCl, 5 mM mercaptoethanol, 0.1% TritonX-100, and 5% glycerol. Soluble C-terminally hexa-histidine tagged 11β-HSD1 was bound to Ni-agarose affinity resin (Qiagen), washed with a buffer containing 20 mM Tris, pH 8.5, 200 mM NaCl, and 10 mM imidazole, and eluted with a buffer containing 20 mM Tris, pH 8.8, 250 mM NaCl, and 150 mM imidazole. Thrombin (Roche) was added at one unit per 4 mg protein to the elute, which was then dialyzed against 20 mM Tris pH 8.5 and 100 mM NaCl at room temperature for overnight digestion. After thrombin digestion to remove the hexahistidine tag, contaminant proteins were removed by loading the elute onto a second cobalt affinity column equilibrated in the dialyzing buffer and collecting the flow-through. The protein was further purified with anion exchange chromatography, using a linear gradient of 10 mM to 1 M NaCl concentration and size exclusion chromatography at 20 mM Tris pH 8.5 and 200 mM NaCl[22][23].
# The inhibitory effects of 1–8 on 11β-HSD1 were measured using recombinant human 11β-HSD1 protein through HPLC-MS/MS method. Briefly, 2.5 μL recombinant 11β-HSD1 protein (0.512 mg protein/ml) was added to 100 μL buffer (100 mM KCl, 20 mM NaCl, 20 mM Hepes, pH 7.5) containing NADPH (1 mM) and cortisone (50 μM) with or without various concentrations of compounds. The reactants were incubated at 37 °C for 30 min. After extraction with dichloromethane, evaporation and resolvation with 200 μL methanol, cortisone and cortisol were measured by HPLC-MS/MS and multi-reactions monitoring (MRM) technology. Detection was performed using a Shimadzu LC-20AD HPLC system equipped with an SHIMADZU VP-ODS 150 L × 4.6 mm column connected to a API 4000 LC/MS/MS system. Samples were analyzed after injection and equilibrated with 45% solution A (0.1% formic acid in water) and 55% solution B (Methanol) under isocratic elution with the flow rate of 0.8 mL/min. The HPLC eluent were tested by HPLC-MS/MS using collision energy 33 eV (cortisol) and 30 eV […] in positive ion mode. Analyst quantitation optimization wizard was used to optimize the collision energies and other electric lens settings for MRM detections. The inhibition rates were calculated using the concentration ratios of cortisone and cortisol in tubes with or without various compounds.
# T1 sequence (P28845 whole entry): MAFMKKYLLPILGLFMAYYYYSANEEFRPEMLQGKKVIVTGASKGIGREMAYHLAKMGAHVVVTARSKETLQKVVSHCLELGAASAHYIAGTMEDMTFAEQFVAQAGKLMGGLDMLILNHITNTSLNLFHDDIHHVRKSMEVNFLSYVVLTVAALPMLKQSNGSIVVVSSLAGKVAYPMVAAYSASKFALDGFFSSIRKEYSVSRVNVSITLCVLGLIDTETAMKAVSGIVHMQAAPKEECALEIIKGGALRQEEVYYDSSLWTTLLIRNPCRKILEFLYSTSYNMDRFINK
row,IC50,SMILES
1,45.5 ± 7.82 µM,"CN1C(=O)c2ccccc2NC(=O)C12OC2c1cccc(O)c1 (single isomer, unassigned; (+)) [Compound 5, (+)-cyclopenol]"
2,> 200 µM,"CC(=O)c1cc(C)c2c(c1O)C[C@H](C)[C@@]1(C[C@@H](O)C[C@@H](C)O1)O2 [Compound 1, Penicophenone A]"
3,> 200 µM,"COc1cc(Cc2c(O)c(C)cc(C(C)=O)c2O)c(OC)cc1O [Compound 2, Penicophenone B]"
4,9.07 ± 0.61 µM,"CN1C(=O)c2ccccc2NC(=O)[C@@H](Cc2ccccc2)N(C)C(=O)c2ccccc2NC(=O)[C@H]1Cc1ccccc1 [Compound 3, Penicopeptide A]"
5,> 200 µM,"CN1C(=O)c2ccccc2NC(=O)/C1=C/c1ccccc1 [Compound 4, 3-benzylidene-3,4-dihydro-4-methyl-lH-l,4-benzodiazepine-2,5-dione]"
6,> 200 µM,"CC(=O)c1cc(C)c(O)c(C[C@]23Cc4c(O)c(C(C)=O)cc(C)c4O[C@@]2(O)[C@@H](C)OC3=O)c1O [Compound 8, penilactones A]"

row,SMILES,IC50
1,"CC(C)=CCC[C@]1(C)[C@@H](O)CC[C@@]2(C)[C@H]1CC[C@H]1Cc3c([nH]c4ccccc34)[C@@]12C [Compound 7, emindole SB]",> 200 µM

# Molecular target: T1, recombinant human 11β-HSD1
# Test: Binding affinity assay using microscale thermophoresis (MST)
# Settings: labelled 11β-HSD1 50 nM, 22 °C, means ± SD for three experiments
# Text: Measuring the thermophoretic behaviour of a protein in the presence of differing ligand concentrations by MST allows quantitative analysis of molecular interactions in solution. The MST technique has previously been used to investigate protein-protein, small organic molecule-protein and antibody-protein interactions.
# as §1
# The ability of the purified 11β-HSD1 to bind with potential ligands was analyzed using MST. The protein was labeled with the Monolith NT™ Protein Labeling Kit RED (Cat#L001) according to the supplied labeling protocol. Labelled 11β-HSD1 was kept constant at 50 nM, while all samples tested were diluted in a 20 mM HEPES (pH 7.5) and 0.05 (v/v)% Tween-20. Compounds were diluted in 12 dilution steps covering the range of appropriate concentrations. After 10 min incubation at room temperature, samples were loaded into Monolith^TM standard-treated capillaries and the thermophoresis was measured at 22 °C after 30 min incubation on a Monolith NT.115 instrument (NanoTemper Technologies, München, Germany). Laser power was set to 40% using 30 seconds on-time and the LED power was set to 100%. The dissociation constrant Kd values were fitted by using the NTAnalysis software (NanoTemper Technologies, München, Germany).
row,SMILES,Kd (dissociation constant with 11β-HSD1)
1,"CC(=O)c1cc(C)c2c(c1O)C[C@H](C)[C@@]1(C[C@@H](O)C[C@@H](C)O1)O2 [Compound 1, Penicophenone A]",either no binding or no statistically significant binding was detected; also recorded: n.b.b
2,"COc1cc(Cc2c(O)c(C)cc(C(C)=O)c2O)c(OC)cc1O [Compound 2, Penicophenone B]",either no binding or no statistically significant binding was detected and n.b.
3,"CN1C(=O)c2ccccc2NC(=O)/C1=C/c1ccccc1 [Compound 4, 3-benzylidene-3,4-dihydro-4-methyl-lH-l,4-benzodiazepine-2,5-dione]",either no binding or no statistically significant binding was detected and n.b.
4,"CC(C)=CCC[C@]1(C)[C@@H](O)CC[C@@]2(C)[C@H]1CC[C@H]1Cc3c([nH]c4ccccc34)[C@@]12C [Compound 7, emindole SB]",either no binding or no statistically significant binding was detected and n.b.
5,"CC(=O)c1cc(C)c(O)c(C[C@]23Cc4c(O)c(C(C)=O)cc(C)c4O[C@@]2(O)[C@@H](C)OC3=O)c1O [Compound 8, penilactones A]",either no binding or no statistically significant binding was detected and n.b.

# Same assay, conditions: labelled 11β-HSD1 50 nM, 22 °C, means ± SD for three experiments, read-out: Kd (dissociation constant with 11β-HSD1)
row,Kd,SMILES
1,421 ± 12.1 µM,"CN1C(=O)c2ccccc2NC(=O)C12OC2c1cccc(O)c1 (single isomer, unassigned; (+)) [Compound 5, (+)-cyclopenol]"
2,82.1 ± 5.01 µM,"CN1C(=O)c2ccccc2NC(=O)[C@@H](Cc2ccccc2)N(C)C(=O)c2ccccc2NC(=O)[C@H]1Cc1ccccc1 [Compound 3, Penicopeptide A]"

row,SMILES,Kd
1,"CN1C(=O)c2ccccc2NC(=O)C12OC2c1ccccc1 (centres unmarked) [Compound 6, cyclopenin]",513 ± 10.6 µM

# Test system: 3T3-L1 preadipocytes
# Test: Lipid accumulation in differentiation-induced 3T3-L1 preadipocytes (Oil Red O staining)
# Type: cell-based
# Settings: 3T3-L1 preadipocytes induced to differentiate, 50 μM compound, 6 days
# Experimental: It was reported that 11β-HSD1 is highly expressed in normal liver[18] and stimulates pre-adipocyte differentiation. As a result, many 11β-HSD1 inhibitors were investigated to prevent adipogenesis. To further examine the 11β-HSD1 inhibitory effects of compound 3, we examined the anti-adipogenic effect of compound 3 during the differentiation of 3T3-L1 cells.
# (§2) 3T3-L1 preadipocytes were purchased from Shanghai Institute of Cell Biology, Chinese Academy of Sciences. Both of them were cultured in DMEM medium (Gibco, USA) containing 10% FBS, penicillin (100 U/mL), streptomycin […] in 5% CO2 at 37 °C. 3T3-L1 preadipocytes were induced to differentiate as previously described. In short, differentiation was induced by adding 0.5 mmol/L 3-isobutyl-1-methyxanthine (Sigma), 10 μg/mL insulin (Sigma), and […] dexamethasone (Sigma) to the medium. After 48 h incubation (d2), the medium was replaced with DMEM containing 10 μg/mL insulin and 50 μM compound 3. On d4, the medium was replaced with DMEM containing compound 3, and then changed back to the same medium every on d6.
# Preadipocytes 3T3-L1 were induced to differentiate with or without compounds 3 for 6 days, and then washed twice with PBS, fixed in 3.7% formaldehyde for 1 h and stained with Oil Red O for another 1 h at room temperature. Cells were then washed several times with PBS, and photographed by a light microscope (Olympus, Japan).
row,SMILES,lipid droplet accumulation
1,"CN1C(=O)c2ccccc2NC(=O)[C@@H](Cc2ccccc2)N(C)C(=O)c2ccccc2NC(=O)[C@H]1Cc1ccccc1 [Compound 3, Penicopeptide A]",decreased the lipid droplet accumulation

# Test system: 11β-HSD1 expression in 3T3-L1 cells
# Test: 11β-HSD1 expression in 3T3-L1 cells (western blot)
# Type: cell-based
# Settings: differentiation-induced 3T3-L1 preadipocytes, β-Actin loading control
# Experimental: Figure 5 Effects of compound 3 on lipid accumulation and 11β-HSD1 expression in 3T3-L1 cells. Preadipocytes were induced to differentiate in the presence or absence of compound 3, which was then stained with Oil Red O and photographed (40×). 11β-HSD1 expressions were determined by western blot. β-Actin was used as a loading control.
# as §2
# Cells were treated and then lysed in a radio immune-precipitation assay buffer. Protein concentrations were determined using a BCA protein assay kit (Byontime, Beijing, China) and equalized before loading. […]
row,SMILES,11β-HSD1 expression
1,"CN1C(=O)c2ccccc2NC(=O)[C@@H](Cc2ccccc2)N(C)C(=O)c2ccccc2NC(=O)[C@H]1Cc1ccccc1 [Compound 3, Penicopeptide A]",inhibition of 11β-HSD1 expression
